Reference: the supplement of paper PMC10627819

Columns and labels:
B. subtilis 168 [1] = experiment: fitness (endpoint OD595 vs no drug) (fraction); higher = more growth
In short: (§1)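 Bacterial fitness was scored as optical density at the stationary-phase transition relative to the robust mean of no-drug control wells. Scores are capped at 1. The growth data were OD595 readings every 30 min for 14 h at 37 °C, background-subtracted against the first reading, from 384-well plates inoculated at OD595 0.01 in TSB, LB Lennox or CY.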

S. aureus DSM 20231 [2] = experiment: as above
In short: as §1

S. pneumoniae D39V [3] = experiment: as above
In short: as §1

S. aureus Newman [4] = experiment: as above
In short: as §1

B. subtilis 168 [5] = experiment: Bliss interaction score (quartile over a dose matrix) (fitness difference); higher = more antagonism (negative = synergy)
In short: (§2)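 Each plate was normalised to the robust mean of its own no-drug wells, using OD595 at entry into stationary phase, with values capped at 1. This normalised growth is the fitness value. The Bliss score is the difference between observed and product-expected fitness, with single-drug fitness inferred from the combination data and quartiles taken over technical, biological and donor/recipient replicates.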

S. aureus DSM 20231 [6] = experiment: as above
In short: as §2

S. pneumoniae D39V [7] = experiment: as above
In short: as §2

S. aureus Newman [8] = experiment: as above
In short: as §2
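For Bliss interaction score (quartile over a dose matrix) in this document: first quartile when negative (synergy) and third quartile when positive (antagonism).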

Cc1ncc([N+](=O)[O-])n1CCO [Metronidazole] + CN[C@@H]1[C@H](O)[C@H](NC)[C@H]2O[C@@]3(O)C(=O)C[C@@H](C)O[C@H]3O[C@@H]2[C@H]1O [Spectinomycin]
fitness
Conditions | partner 2 µg/mL | partner 4 µg/mL | partner 8 µg/mL | partner 16 µg/mL
B. subtilis 168 [1], first compound 0.625 µg/mL | 0.947 | 0.963 | 0.949 | –
B. subtilis 168 [1], first compound 1.25 µg/mL | 0.973 | 0.953 | 0.889 | –
B. subtilis 168 [1], first compound 2.5 µg/mL | 0.976 | 0.95 | 0.91 | –
S. aureus DSM 20231 [2], first compound 0.625 µg/mL | – | 0.973 | 0.944 | 0.887
S. aureus DSM 20231 [2], first compound 1.25 µg/mL | – | 0.946 | 0.958 | 0.852
S. aureus DSM 20231 [2], first compound 2.5 µg/mL | – | 0.976 | ≥ 1 | 0.924
S. aureus Newman [4], first compound 0.625 µg/mL | – | 0.94 | 0.909 | 0.929
S. aureus Newman [4], first compound 0.781 µg/mL | – | 0.893 | 0.974 | 0.91
S. aureus Newman [4], first compound 1.25 µg/mL | – | 0.98 | 0.98 | 0.932
S. aureus Newman [4], first compound 1.562 µg/mL | – | 0.93 | 0.998 | 0.928
S. aureus Newman [4], first compound 2.5 µg/mL | – | 0.951 | 0.926 | 0.926
S. aureus Newman [4], first compound 3.124 µg/mL | – | 0.895 | 0.98 | 0.935
S. pneumoniae D39V [3], first compound 1.073 µg/mL | – | 0.94 | 0.976 | 0.909
S. pneumoniae D39V [3], first compound 2.145 µg/mL | – | 0.946 | 0.944 | 0.881
S. pneumoniae D39V [3], first compound 4.29 µg/mL | – | 0.901 | 0.9 | 0.878

fitness, one replicate
Conditions | first compound 0.625 µg/mL | first compound 1.25 µg/mL | first compound 2.5 µg/mL | first compound 5 µg/mL
S. aureus DSM 20231 [2], partner 32 µg/mL | 0.703 | 0.684 | 0.689 | –
S. aureus DSM 20231 [2], partner 64 µg/mL | 0.0868 | 0.121 | 0.103 | –
S. aureus Newman [4], partner 32 µg/mL | 0.685 | 0.656 | 0.596 | –
S. aureus Newman [4], partner 64 µg/mL | 0.101 | 0.147 | 0.134 | –
S. pneumoniae D39V [3], partner 4 µg/mL | – | ≥ 1 | ≥ 1 | ≥ 1
S. pneumoniae D39V [3], partner 8 µg/mL | – | 0.964 | 0.99 | 0.986

Conditions | Bliss interaction score
B. subtilis 168 [5] | -0.0603
S. aureus DSM 20231 [6] | 0.0691
S. aureus Newman [8] | 0.0758
S. pneumoniae D39V [7] | 0.044

Cc1ncc([N+](=O)[O-])n1CCO [Metronidazole] + COc1c(N2C[C@@H]3CCCN[C@@H]3C2)c(F)cc2c(=O)c(C(=O)O)cn(C3CC3)c12 [Moxifloxacin]
Conditions | fitness
B. subtilis 168 [1], first compound 0.625 µg/mL, partner 0.0312 µg/mL | 0.0445
B. subtilis 168 [1], first compound 0.625 µg/mL, partner 0.0625 µg/mL | 0.0572
B. subtilis 168 [1], first compound 0.625 µg/mL, partner 0.125 µg/mL | 0.045
B. subtilis 168 [1], first compound 0.625 µg/mL, partner 2 µg/mL | 0.0237
B. subtilis 168 [1], first compound 0.625 µg/mL, partner 4 µg/mL | 0.0328
B. subtilis 168 [1], first compound 0.625 µg/mL, partner 8 µg/mL | 0.0161
B. subtilis 168 [1], first compound 1.25 µg/mL, partner 0.0312 µg/mL | 0.0649
B. subtilis 168 [1], first compound 1.25 µg/mL, partner 0.0625 µg/mL | 0.0674
B. subtilis 168 [1], first compound 1.25 µg/mL, partner 0.125 µg/mL | 0.0461
B. subtilis 168 [1], first compound 1.25 µg/mL, partner 2 µg/mL | 0.0257
B. subtilis 168 [1], first compound 1.25 µg/mL, partner 4 µg/mL | 0.0355
B. subtilis 168 [1], first compound 1.25 µg/mL, partner 8 µg/mL | 0.022
B. subtilis 168 [1], first compound 2.5 µg/mL, partner 0.0312 µg/mL | 0.0682
B. subtilis 168 [1], first compound 2.5 µg/mL, partner 0.0625 µg/mL | 0.0527
B. subtilis 168 [1], first compound 2.5 µg/mL, partner 0.125 µg/mL | 0.0558
B. subtilis 168 [1], first compound 2.5 µg/mL, partner 2 µg/mL | 0.0301
B. subtilis 168 [1], first compound 2.5 µg/mL, partner 4 µg/mL | 0.0306
B. subtilis 168 [1], first compound 2.5 µg/mL, partner 8 µg/mL | 0.0188
S. aureus DSM 20231 [2], first compound 0.625 µg/mL, partner 0.0075 µg/mL | 0.835
S. aureus DSM 20231 [2], first compound 0.625 µg/mL, partner 0.015 µg/mL | 0.779
S. aureus DSM 20231 [2], first compound 0.625 µg/mL, partner 0.03 µg/mL | 0.635
S. aureus DSM 20231 [2], first compound 1.25 µg/mL, partner 0.0075 µg/mL | 0.834
S. aureus DSM 20231 [2], first compound 1.25 µg/mL, partner 0.015 µg/mL | 0.807
S. aureus DSM 20231 [2], first compound 1.25 µg/mL, partner 0.03 µg/mL | 0.633
S. aureus DSM 20231 [2], first compound 2.5 µg/mL, partner 0.0075 µg/mL | 0.883
S. aureus DSM 20231 [2], first compound 2.5 µg/mL, partner 0.015 µg/mL | 0.828
S. aureus DSM 20231 [2], first compound 2.5 µg/mL, partner 0.03 µg/mL | 0.652
S. aureus Newman [4], first compound 0.625 µg/mL, partner 0.0075 µg/mL | 0.77
S. aureus Newman [4], first compound 0.625 µg/mL, partner 0.015 µg/mL | 0.62
S. aureus Newman [4], first compound 0.781 µg/mL, partner 0.0075 µg/mL | 0.691
S. aureus Newman [4], first compound 0.781 µg/mL, partner 0.015 µg/mL | 0.537
S. aureus Newman [4], first compound 0.781 µg/mL, partner 0.03 µg/mL | 0.0945
S. aureus Newman [4], first compound 1.25 µg/mL, partner 0.0075 µg/mL | 0.811
S. aureus Newman [4], first compound 1.25 µg/mL, partner 0.015 µg/mL | 0.598
S. aureus Newman [4], first compound 1.562 µg/mL, partner 0.0075 µg/mL | 0.689
S. aureus Newman [4], first compound 1.562 µg/mL, partner 0.015 µg/mL | 0.531
S. aureus Newman [4], first compound 1.562 µg/mL, partner 0.03 µg/mL | 0.0833
S. aureus Newman [4], first compound 2.5 µg/mL, partner 0.0075 µg/mL | 0.757
S. aureus Newman [4], first compound 2.5 µg/mL, partner 0.015 µg/mL | 0.596
S. aureus Newman [4], first compound 3.124 µg/mL, partner 0.0075 µg/mL | 0.725
S. aureus Newman [4], first compound 3.124 µg/mL, partner 0.015 µg/mL | 0.525
S. aureus Newman [4], first compound 3.124 µg/mL, partner 0.03 µg/mL | 0.0829
S. pneumoniae D39V [3], first compound 1.073 µg/mL, partner 0.0037 µg/mL | 0.834
S. pneumoniae D39V [3], first compound 1.073 µg/mL, partner 0.0075 µg/mL | 0.85
S. pneumoniae D39V [3], first compound 1.073 µg/mL, partner 0.015 µg/mL | 0.879
S. pneumoniae D39V [3], first compound 1.25 µg/mL, partner 0.005 µg/mL | 0.991
S. pneumoniae D39V [3], first compound 1.25 µg/mL, partner 0.01 µg/mL | ≥ 1
S. pneumoniae D39V [3], first compound 1.25 µg/mL, partner 0.02 µg/mL | 0.975
S. pneumoniae D39V [3], first compound 2.145 µg/mL, partner 0.0037 µg/mL | 0.689
S. pneumoniae D39V [3], first compound 2.145 µg/mL, partner 0.0075 µg/mL | 0.707
S. pneumoniae D39V [3], first compound 2.145 µg/mL, partner 0.015 µg/mL | 0.808
S. pneumoniae D39V [3], first compound 2.5 µg/mL, partner 0.005 µg/mL | ≥ 1
S. pneumoniae D39V [3], first compound 2.5 µg/mL, partner 0.01 µg/mL | ≥ 1
S. pneumoniae D39V [3], first compound 2.5 µg/mL, partner 0.02 µg/mL | ≥ 1
S. pneumoniae D39V [3], first compound 4.29 µg/mL, partner 0.0037 µg/mL | 0.742
S. pneumoniae D39V [3], first compound 4.29 µg/mL, partner 0.0075 µg/mL | 0.787
S. pneumoniae D39V [3], first compound 4.29 µg/mL, partner 0.015 µg/mL | 0.84
S. pneumoniae D39V [3], first compound 5 µg/mL, partner 0.005 µg/mL | ≥ 1
S. pneumoniae D39V [3], first compound 5 µg/mL, partner 0.01 µg/mL | 0.999
S. pneumoniae D39V [3], first compound 5 µg/mL, partner 0.02 µg/mL | 0.983

fitness, S. aureus DSM 20231 [2], one replicate
Conditions | first compound 0.625 µg/mL | first compound 1.25 µg/mL | first compound 2.5 µg/mL
partner 0.06 µg/mL | 0.703 | 0.666 | 0.703
partner 0.12 µg/mL | 0.498 | 0.486 | 0.541

Conditions | Bliss interaction score
B. subtilis 168 [5] | -0.015
S. aureus DSM 20231 [6] | -0.063
S. aureus Newman [8] | -0.0493
S. pneumoniae D39V [7] | 0.0628
